Measured values: PMC11284788, “NN1213 – A Potent, Long-Acting, and Selective Analog of Human Amylin” (Journal of Medicinal Chemistry, 2024)
pEC50, pIC50: −log10 of the molar value. Where two headings read alike, the source gives them in different places. Numbered stars: 1 amine (or outer) side, 2 acyl side, 3 side chain; on linkers, the order of the positions; unused ones are H or OH. Bridge positions count the residues as written; N and C are the ends. Side chains are listed from the residue outwards. Peptide text beside a SMILES is read from it. * marks the point of attachment. C20 diacid = O=C(O)CCCCCCCCCCCCCCCCCCC(=O)*; γGlu = O=C(O)[C@H](CCC(=O)[*:2])N[*:1]

Experiments:
rAMY3R = target: T1, rAMY3R (Rattus norvegicus, UniProt P32214+Q9JJ73); experiment: scintillation proximity binding assay, rAMY3R membranes; set-up: expressed in transfected cells; host or cells: BHK tk-ts 13, transient co-transfection (FuGENE 6); settings: for ratio rCTR/rAMY3R: ratio of binding IC50 values
T1 sequence (P32214 25-479 isoform P32214-2 limits assumed): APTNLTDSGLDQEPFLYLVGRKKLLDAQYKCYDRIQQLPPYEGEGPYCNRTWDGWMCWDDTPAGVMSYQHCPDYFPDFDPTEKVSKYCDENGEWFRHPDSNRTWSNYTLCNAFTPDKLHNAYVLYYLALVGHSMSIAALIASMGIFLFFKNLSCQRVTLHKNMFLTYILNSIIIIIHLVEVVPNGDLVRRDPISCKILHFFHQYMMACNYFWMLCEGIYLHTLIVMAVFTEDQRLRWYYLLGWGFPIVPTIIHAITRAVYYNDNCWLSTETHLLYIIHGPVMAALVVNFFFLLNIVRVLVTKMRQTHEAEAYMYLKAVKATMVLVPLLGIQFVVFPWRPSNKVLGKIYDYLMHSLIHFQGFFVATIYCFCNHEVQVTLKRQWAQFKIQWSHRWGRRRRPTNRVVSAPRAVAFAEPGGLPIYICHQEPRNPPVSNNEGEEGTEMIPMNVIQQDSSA
T1 sequence (Q9JJ73 23-147 partner): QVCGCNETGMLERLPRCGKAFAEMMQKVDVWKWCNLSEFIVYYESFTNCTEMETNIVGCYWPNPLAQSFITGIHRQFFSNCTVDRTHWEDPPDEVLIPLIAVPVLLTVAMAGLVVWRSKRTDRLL
Experimental: The apparent binding affinities were determined using a scintillation proximity assay with beads from PerkinElmer and cell membranes containing the AMY3R or CTRs. […] Membranes were harvested and membranes were prepared and kept at −80 °C until use. The assay was performed in a 384-well Optiplate (PerkinElmer). Membranes were mixed with scintillation proximity assay beads in a 1:1 ratio. […] Samples were analyzed on a TopCounter (Packard). The IC50 values were calculated using GraphPad Prism. See Supporting Information S7: SAR Screening Assay Methods (Binding Assays (Human and Rat)) for more information.
Binding Assays (Human and Rat). Brief descriptions of the methods used to determine binding affinities for SAR analysis are described below. Curves and IC50 values were plotted and calculated in GraphPad Prism using nonlinear regression (one site binding competition analysis), with pIC50 values […]
values were used to calculate the binding affinity ratios in order to express the selectivity of compounds for the AMY3R versus the CTR.
CTR Binding Assay. The binding assay was performed using scintillation proximity assay (SPA) beads (RPNQ0001) from PerkinElmer and cell membranes containing either the hCTR or rCTR. BHK […]
(§1) Membranes were prepared in the following way: the cells were rinsed with PBS and incubated with Versene for approximately 5 min before harvesting. The cells were flushed with PBS and the cell-suspension was centrifuged for 5 min at 1000 rpm. Cells were homogenized (Ultra Turrax) in a buffer […]
containing 20 mM Na-HEPES and 0.1 mM EDTA (pH 7.4, buffer 2). The resulting pellet was re-suspended in buffer 2 and protein concentration was measured (BCA protein assay, Pierce). The homogenate was kept cold during the whole procedure. The membranes were stored at –80 °C until […]
The binding assay was performed in a 384-well Optiplate (PerkinElmer) in a total volume of 40 μL.
Membranes were mixed with SPA beads in a 1:1 ratio. […]
mg/well. Test compounds were dissolved in DMSO and further diluted in assay buffer (50 mM HEPES, pH 7.4, 1 mM CaCl2, 5 mM MgCl2, 0.1% ovalbumin, and 0.02% Tween-20).
Calcitonin (NEX422 PerkinElmer) was dissolved in assay buffer and added to the Optiplate at a final […]
prior to centrifugation (1500 rpm, 10 min). Samples were analyzed on TopCounter (Packard).
AMY3R Binding Assay. The binding assay was performed using SPA beads (RPNQ0001) from PerkinElmer and cell membranes containing either the hAMY3R or rAMY3R. BHK tk-ts 13 cells were […]
as §1, with “and cultured as described above. Membranes” for “Membranes”, “buffer containing 20 mM Na-HEPES and 10 mM EDTA (pH 7.4), and” for “buffer”
The resulting pellet was re-suspended, homogenized, and
7.4, buffer 2). The resulting pellet was re-suspended in buffer 2 and protein concentration was measured (BCA protein assay, Pierce). The homogenate was kept cold during the whole procedure.
The membranes were stored at –80 °C until use.
Membranes were mixed with SPA beads in a 1:1 ratio. The final concentration of SPA beads was 0.05 mg/well. Test compounds were dissolved in DMSO and further diluted in assay buffer (50 mM […]
rAMY (NEX448 PerkinElmer) was dissolved in assay buffer and added to the Optiplate at a final

hCTR = target: T2, hCTR (Homo sapiens, UniProt P30988); experiment: cAMP-responsive element luciferase reporter assay, human CTR; assay type: cell-based; settings: luciferase (human receptor assay); for hCTR pEC50 / EC50: Tables S12 and S14; for pEC50: BHK cells stably expressing hCTR and CRE-luciferase, 3 h, 37 °C, 10% FBS, read-out: hCTR EC50; for EC50: read-out: hCTR pEC50 (converted)
T2 sequence (P30988 25-474): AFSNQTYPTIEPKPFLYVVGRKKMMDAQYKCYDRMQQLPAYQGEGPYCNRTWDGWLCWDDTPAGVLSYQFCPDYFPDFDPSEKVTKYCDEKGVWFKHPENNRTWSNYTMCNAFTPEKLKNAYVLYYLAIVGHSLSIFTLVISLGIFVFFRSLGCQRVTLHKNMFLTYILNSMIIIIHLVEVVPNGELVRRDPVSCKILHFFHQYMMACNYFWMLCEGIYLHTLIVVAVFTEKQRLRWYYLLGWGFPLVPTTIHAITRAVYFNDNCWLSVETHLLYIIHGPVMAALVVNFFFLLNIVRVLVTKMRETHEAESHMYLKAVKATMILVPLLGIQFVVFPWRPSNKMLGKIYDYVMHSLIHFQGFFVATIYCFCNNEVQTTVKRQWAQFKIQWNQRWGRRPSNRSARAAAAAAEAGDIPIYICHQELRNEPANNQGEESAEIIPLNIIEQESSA

[1] = SPA binding assay, Tables S13 and S15

Row | ratio rCTR/rAMY3R (rAMY3R) | hCTR pEC50 (hCTR) | pEC50 (hCTR) | rAMY3R pIC50 (rAMY3R; [1]) | IC50 (rAMY3R; SPA binding assay, Tables S13 and S15, read-out: rAMY3R pIC50 (converted)) [nM] | pIC50 (rAMY3R; SPA, BHK cell membranes, 125I-rat amylin, 120 min 25 °C, read-out: rAMY3R IC50) | EC50 (hCTR) [nM] | SMILES
1 | 111 | 8.28 | 8.28 | – | – | – | – | CC[C@H](C)[C@H](NC(=O)[C@H](C)NC(=O)CNC(=O)[C@H](Cc1ccccc1)NC(=O)[C@H](CC(N)=O)NC(=O)[C@@H]1CCCN1C(=O)[C@H](CO)NC(=O)[C@H](CO)NC(=O)[C@H](Cc1c[nH]cn1)NC(=O)[C@H](CCCNC(=N)N)NC(=O)[C@H](CC(C)C)NC(=O)[C@H](Cc1ccccc1)NC(=O)[C@H](CCC(=O)O)NC(=O)[C@H](C)NC(=O)[C@H](CC(C)C)NC(=O)[C@H](CCCNC(=N)N)NC(=O)[C@H](CCC(N)=O)NC(=O)[C@@H](NC(=O)[C@H](C)NC(=O)[C@@H]1CSSC[C@H](NC(=O)[C@@H](N)CCCCNC(=O)CC[C@H](NC(=O)CCCCCCCCCCCCCCCCCCC(=O)O)C(=O)O)C(=O)N[C@@H](CC(N)=O)C(=O)N[C@@H]([C@@H](C)O)C(=O)N[C@@H](C)C(=O)N[C@@H]([C@@H](C)O)C(=O)N1)[C@@H](C)O)C(=O)N1CCC[C@H]1C(=O)N[C@@H](CO)C(=O)N[C@@H](CO)C(=O)N[C@H](C(=O)N[C@@H](CC(N)=O)C(=O)N[C@H](C(=O)NCC(=O)N[C@@H](CO)C(=O)N[C@@H](CCCNC(=N)N)C(=O)N[C@H](C(=O)N[C@@H](Cc1ccc(O)cc1)C(N)=O)[C@@H](C)O)C(C)C)[C@@H](C)O [Peptide 20] (H-K([γGlu-C20 diacid])CNTATCATQRLAEFLRHSSPNFGAIPSSTNVGSRTY-NH2; disulfide 2-7)
2 | 7.5 | 8.86 | – | 9.00 | – | – | – | CC(C)C[C@H](NC(=O)[C@H](CCCNC(=N)N)NC(=O)[C@H](CCC(N)=O)NC(=O)[C@@H](NC(=O)[C@H](C)NC(=O)[C@@H]1CSSC[C@H](NC(=O)[C@@H](N)CCCCNC(=O)CC[C@H](NC(=O)CC[C@H](NC(=O)CCCCCCCCCCCCCCCCCCC(=O)O)C(=O)O)C(=O)O)C(=O)N[C@@H](CC(N)=O)C(=O)N[C@@H]([C@@H](C)O)C(=O)N[C@@H](C)C(=O)N[C@@H]([C@@H](C)O)C(=O)N1)[C@@H](C)O)C(=O)N[C@@H](C)C(=O)N[C@@H](CC(=O)O)C(=O)N[C@@H](Cc1ccccc1)C(=O)N[C@@H](CC(C)C)C(=O)N[C@@H](CCCNC(=N)N)C(=O)N[C@@H](Cc1c[nH]cn1)C(=O)N[C@@H](CO)C(=O)N[C@@H](CO)C(=O)N[C@@H](CC(N)=O)C(=O)N1CCC[C@H]1C(=O)N[C@@H](Cc1ccccc1)C(=O)NCC(=O)N[C@@H](C)C(=O)N1CCC[C@H]1C(=O)N[C@@H](CC(C)C)C(=O)N[C@@H](CO)C(=O)N[C@@H](CO)C(=O)N[C@H](C(=O)N[C@@H](CC(N)=O)C(=O)N[C@H](C(=O)NCC(=O)N[C@@H](CO)C(=O)N[C@@H](CC(=O)O)C(=O)N[C@H](C(=O)N[C@@H](Cc1ccc(O)cc1)C(N)=O)[C@@H](C)O)C(C)C)[C@@H](C)O [Peptide 7] (H-K([γGlu-γGlu-C20 diacid])CNTATCATQRLADFLRHSSNPFGAPLSSTNVGSDTY-NH2; disulfide 2-7)
3 | 76 | – | 8.52 | – | 4.68 | 8.33 | 3.02 | CC[C@H](C)[C@H](NC(=O)[C@@H]1CCCN1C(=O)CNC(=O)[C@H](Cc1ccccc1)NC(=O)[C@H](CC(N)=O)NC(=O)[C@@H]1CCCN1C(=O)[C@H](CO)NC(=O)[C@H](CO)NC(=O)[C@H](Cc1c[nH]cn1)NC(=O)[C@H](CCCNC(=N)N)NC(=O)[C@H](CC(C)C)NC(=O)[C@H](Cc1ccccc1)NC(=O)[C@H](CC(=O)O)NC(=O)[C@H](C)NC(=O)[C@H](CC(C)C)NC(=O)[C@H](CCCNC(=N)N)NC(=O)[C@H](CCC(N)=O)NC(=O)[C@@H](NC(=O)[C@H](C)NC(=O)[C@@H]1CSSC[C@H](NC(=O)[C@@H](N)CCCCNC(=O)CC[C@H](NC(=O)CC[C@H](NC(=O)CCCCCCCCCCCCCCCCCCC(=O)O)C(=O)O)C(=O)O)C(=O)N[C@@H](CC(N)=O)C(=O)N[C@@H]([C@@H](C)O)C(=O)N[C@@H](C)C(=O)N[C@@H]([C@@H](C)O)C(=O)N1)[C@@H](C)O)C(=O)N[C@@H](CC(C)C)C(=O)N[C@@H](CO)C(=O)N[C@@H](CO)C(=O)N[C@H](C(=O)N[C@@H](CC(N)=O)C(=O)N[C@H](C(=O)NCC(=O)N[C@@H](CO)C(=O)N[C@@H](CC(=O)O)C(=O)N[C@H](C(=O)N[C@@H](Cc1ccc(O)cc1)C(N)=O)[C@@H](C)O)C(C)C)[C@@H](C)O [Peptide 3] (H-K([γGlu-γGlu-C20 diacid])CNTATCATQRLADFLRHSSPNFGPILSSTNVGSDTY-NH2; disulfide 2-7)
4 | 81 | – | 8.59 | 8.89 | – | – | 2.57 | CC(C)C[C@H](NC(=O)[C@H](CCCNC(=N)N)NC(=O)[C@H](CCC(N)=O)NC(=O)[C@@H](NC(=O)[C@H](C)NC(=O)[C@@H]1CSSC[C@H](NC(=O)[C@@H](N)CCCCNC(=O)CC[C@H](NC(=O)CC[C@H](NC(=O)CCCCCCCCCCCCCCCCCCC(=O)O)C(=O)O)C(=O)O)C(=O)N[C@@H](CC(N)=O)C(=O)N[C@@H]([C@@H](C)O)C(=O)N[C@@H](C)C(=O)N[C@@H]([C@@H](C)O)C(=O)N1)[C@@H](C)O)C(=O)N[C@@H](C)C(=O)N[C@@H](CC(=O)O)C(=O)N[C@@H](Cc1ccccc1)C(=O)N[C@@H](CC(C)C)C(=O)N[C@@H](CCCNC(=N)N)C(=O)N[C@@H](Cc1c[nH]cn1)C(=O)N[C@@H](CO)C(=O)N[C@@H](CO)C(=O)N1CCC[C@H]1C(=O)N[C@@H](CC(N)=O)C(=O)N[C@@H](Cc1ccccc1)C(=O)NCC(=O)N[C@@H](C)C(=O)N1CCC[C@H]1C(=O)N[C@@H](CC(C)C)C(=O)N[C@@H](CO)C(=O)N[C@@H](CO)C(=O)N[C@H](C(=O)N[C@@H](CC(N)=O)C(=O)N[C@H](C(=O)NCC(=O)N[C@@H](CO)C(=O)N[C@@H](CC(=O)O)C(=O)N[C@H](C(=O)N[C@@H](Cc1ccc(O)cc1)C(N)=O)[C@@H](C)O)C(C)C)[C@@H](C)O [Peptide 5] (H-K([γGlu-γGlu-C20 diacid])CNTATCATQRLADFLRHSSPNFGAPLSSTNVGSDTY-NH2; disulfide 2-7)
